# Laboratory results taken from PubChem BioAssay AID1963427 (Molecular Pharmacology Branch, DTP, NCI, 2024).
# Tested on: 317291-083-R-J1-PDC complex spheroid growth
# Assay: Anticancer human tumor 317291-083-R-J1-PDC patient-derived soft tissue sarcoma cell line growth inhibition [Asc]
# Conditions: for IC50: curve of first compound; for viability, T/C: stronger effect = lower value
# Outline: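 Stromal components (HUVEC and hMSC) are co-assembled with the cancer cells into multicellular spheroids. Drugs are then added singly or paired, at concentrations falling by half-log increments from a clinically achievable maximum, capped at 10 microM without known Cmax.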
# [1] = second compound 0.0316 µM, first compound 0.0316 µM
# [2] = second compound 0.0316 µM, first compound 0.1 µM
# [3] = second compound 0.0316 µM, first compound 0.316 µM
# [4] = second compound 0.0316 µM, first compound 1 µM
# [5] = second compound 0.0316 µM, first compound 3.16 µM
# [6] = second compound 0.0316 µM, first compound 10 µM
# [7] = second compound 0.1 µM, first compound 0.0316 µM
# [8] = second compound 0.1 µM, first compound 0.1 µM
# [9] = second compound 0.1 µM, first compound 0.316 µM
# [10] = second compound 0.1 µM, first compound 1 µM
# [11] = second compound 0.1 µM, first compound 3.16 µM
# [12] = second compound 0.1 µM, first compound 10 µM
# [13] = second compound 0.316 µM, first compound 0.0316 µM
# [14] = second compound 0.316 µM, first compound 0.1 µM
# [15] = second compound 0.316 µM, first compound 0.316 µM
# [16] = second compound 0.316 µM, first compound 1 µM
# [17] = second compound 0.316 µM, first compound 3.16 µM
# [18] = second compound 0.316 µM, first compound 10 µM
# [19] = second compound 1 µM, first compound 0.0316 µM
# [20] = second compound 1 µM, first compound 0.1 µM
# [21] = second compound 1 µM, first compound 0.316 µM
# [22] = second compound 1 µM, first compound 1 µM
# [23] = second compound 1 µM, first compound 3.16 µM
# [24] = second compound 1 µM, first compound 10 µM
# [25] = second compound 0.00316 µM, first compound 0.0316 µM
# [26] = second compound 0.00316 µM, first compound 0.1 µM
# [27] = second compound 0.01 µM, first compound 0.0316 µM
# [28] = second compound 0.01 µM, first compound 0.1 µM
# 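Also: compound exposure lasted seven days after spheroids formed for three days.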
# 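For viability, T/C in this document: 100% = DMSO vehicle control wells.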
compound,measurement,setting,value
C=C(F)C(=O)N1CCN(c2nc(OCC3CCCN3C)nc3c2CCN(c2cccc4cccc(Cl)c24)C3)CC1CC#N (stereo unspecified) + Cc1c(S(C)(=O)=O)c(-c2cc(F)cc(N3CCN(c4ccc(NS(=O)(=O)c5ccc(NC(CCN6CCC(C(=O)OCCCP(=O)(O)O)CC6)CSc6ccccc6)c(S(=O)(=O)C(F)(F)F)c5)cc4)CC3)c2)c(-c2ccc(Cl)cc2)n1C(C)C,IC50,second compound 0.0316 µM,1920 nM
same,IC50,second compound 0.1 µM,1970 nM
same,IC50,second compound 0.316 µM,1720 nM
same,IC50,second compound 1 µM,1620 nM
same,IC50,second compound 3.16 µM,1170 nM
same,IC50,second compound 10 µM,1590 nM
same,"viability, T/C",[1],105%
same,"viability, T/C",[2],105%
same,"viability, T/C",[3],85.2%
same,"viability, T/C",[4],83.2%
same,"viability, T/C",[5],25.8%
same,"viability, T/C",[6],0.54%
same,"viability, T/C",[7],113%
same,"viability, T/C",[8],97%
same,"viability, T/C",[9],86.2%
same,"viability, T/C",[10],96.7%
same,"viability, T/C",[11],17.6%
same,"viability, T/C",[12],0.18%
same,"viability, T/C",[13],80.8%
same,"viability, T/C",[14],90%
same,"viability, T/C",[15],77.5%
same,"viability, T/C",[16],87.1%
same,"viability, T/C",[17],11.7%
same,"viability, T/C",[18],0.14%
same,"viability, T/C",[19],87.5%
same,"viability, T/C",[20],72.9%
same,"viability, T/C",[21],76.8%
same,"viability, T/C",[22],76.3%
same,"viability, T/C",[23],13.7%
same,"viability, T/C",[24],2.51%
same,"viability, T/C","second compound 3.16 µM, first compound 0.0316 µM",100%
same,"viability, T/C","second compound 3.16 µM, first compound 0.1 µM",69.9%
same,"viability, T/C","second compound 3.16 µM, first compound 0.316 µM",74.5%
same,"viability, T/C","second compound 3.16 µM, first compound 1 µM",58.6%
same,"viability, T/C","second compound 3.16 µM, first compound 3.16 µM",7.37%
same,"viability, T/C","second compound 3.16 µM, first compound 10 µM",0.24%
same,"viability, T/C","second compound 10 µM, first compound 0.0316 µM",96.5%
same,"viability, T/C","second compound 10 µM, first compound 0.1 µM",99.1%
same,"viability, T/C","second compound 10 µM, first compound 0.316 µM",96.7%
same,"viability, T/C","second compound 10 µM, first compound 1 µM",77.9%
same,"viability, T/C","second compound 10 µM, first compound 3.16 µM",8.59%
same,"viability, T/C","second compound 10 µM, first compound 10 µM",0.29%
Cn1ncnc1[C@H]1c2n[nH]c(=O)c3cc(F)cc(c23)N[C@@H]1c1ccc(F)cc1 + CNC(C)C(=O)NC1CN(S(=O)(=O)c2cccc(S(=O)(=O)N3CCC4CCC(C(=O)NC(c5ccccc5)c5ccccc5)N4C(=O)C(NC(=O)C(C)NC)C3)c2)CCC2CCC(C(=O)NC(c3ccccc3)c3ccccc3)N2C1=O,IC50,second compound 0.00316 µM,< 0.316 nM
same,IC50,second compound 0.01 µM,< 0.316 nM
same,IC50,second compound 0.0316 µM,21.8 nM
same,IC50,second compound 0.1 µM,17.2 nM
same,IC50,second compound 0.316 µM,1.01 nM
same,IC50,second compound 1 µM,< 0.316 nM
same,"viability, T/C","second compound 0.00316 µM, first compound 0.000316 µM",3.79%
same,"viability, T/C","second compound 0.00316 µM, first compound 0.001 µM",4.39%
same,"viability, T/C","second compound 0.00316 µM, first compound 0.00316 µM",4.26%
same,"viability, T/C","second compound 0.00316 µM, first compound 0.01 µM",4.44%
same,"viability, T/C",[25],4.58%
same,"viability, T/C",[26],4.39%
same,"viability, T/C","second compound 0.01 µM, first compound 0.000316 µM",45.2%
same,"viability, T/C","second compound 0.01 µM, first compound 0.001 µM",37.4%
same,"viability, T/C","second compound 0.01 µM, first compound 0.00316 µM",46.9%
same,"viability, T/C","second compound 0.01 µM, first compound 0.01 µM",29.3%
same,"viability, T/C",[27],28.5%
same,"viability, T/C",[28],34.5%
same,"viability, T/C","second compound 0.0316 µM, first compound 0.000316 µM",79%
same,"viability, T/C","second compound 0.0316 µM, first compound 0.001 µM",86%
same,"viability, T/C","second compound 0.0316 µM, first compound 0.00316 µM",82.5%
same,"viability, T/C","second compound 0.0316 µM, first compound 0.01 µM",57%
same,"viability, T/C",[1],40.3%
same,"viability, T/C",[2],52.7%
same,"viability, T/C","second compound 0.1 µM, first compound 0.000316 µM",95.4%
same,"viability, T/C","second compound 0.1 µM, first compound 0.001 µM",76.5%
same,"viability, T/C","second compound 0.1 µM, first compound 0.00316 µM",60.8%
same,"viability, T/C","second compound 0.1 µM, first compound 0.01 µM",56.6%
same,"viability, T/C",[7],39.3%
same,"viability, T/C",[8],50.4%
same,"viability, T/C","second compound 0.316 µM, first compound 0.000316 µM",58.8%
same,"viability, T/C","second compound 0.316 µM, first compound 0.001 µM",55.7%
same,"viability, T/C","second compound 0.316 µM, first compound 0.00316 µM",36.8%
same,"viability, T/C","second compound 0.316 µM, first compound 0.01 µM",41.6%
same,"viability, T/C",[13],28.9%
same,"viability, T/C",[14],35.9%
same,"viability, T/C","second compound 1 µM, first compound 0.000316 µM",34%
same,"viability, T/C","second compound 1 µM, first compound 0.001 µM",37.4%
same,"viability, T/C","second compound 1 µM, first compound 0.00316 µM",28.1%
same,"viability, T/C","second compound 1 µM, first compound 0.01 µM",30.9%
same,"viability, T/C",[19],29.2%
same,"viability, T/C",[20],22.3%
C=C(F)C(=O)N1CCN(c2nc(OCC3CCCN3C)nc3c2CCN(c2cccc4cccc(Cl)c24)C3)CC1CC#N (stereo unspecified) + CNC(C)C(=O)NC1CN(S(=O)(=O)c2cccc(S(=O)(=O)N3CCC4CCC(C(=O)NC(c5ccccc5)c5ccccc5)N4C(=O)C(NC(=O)C(C)NC)C3)c2)CCC2CCC(C(=O)NC(c3ccccc3)c3ccccc3)N2C1=O,IC50,second compound 0.00316 µM,948 nM
same,IC50,second compound 0.01 µM,1030 nM
same,IC50,second compound 0.0316 µM,559 nM
same,IC50,second compound 0.1 µM,71 nM
same,IC50,second compound 0.316 µM,< 31.6 nM
same,IC50,second compound 1 µM,< 31.6 nM
same,"viability, T/C",[25],90.9%
same,"viability, T/C",[26],69.3%
same,"viability, T/C","second compound 0.00316 µM, first compound 0.316 µM",67%
same,"viability, T/C","second compound 0.00316 µM, first compound 1 µM",54.3%
same,"viability, T/C","second compound 0.00316 µM, first compound 3.16 µM",25%
same,"viability, T/C","second compound 0.00316 µM, first compound 10 µM",0.13%
same,"viability, T/C",[27],66.7%
same,"viability, T/C",[28],61.8%
same,"viability, T/C","second compound 0.01 µM, first compound 0.316 µM",68.5%
same,"viability, T/C","second compound 0.01 µM, first compound 1 µM",50.4%
same,"viability, T/C","second compound 0.01 µM, first compound 3.16 µM",9.6%
same,"viability, T/C","second compound 0.01 µM, first compound 10 µM",0.1%
same,"viability, T/C",[1],62%
same,"viability, T/C",[2],54.2%
same,"viability, T/C",[3],46.8%
same,"viability, T/C",[4],46.6%
same,"viability, T/C",[5],8.82%
same,"viability, T/C",[6],0.1%
same,"viability, T/C",[7],59.1%
same,"viability, T/C",[8],39.9%
same,"viability, T/C",[9],38.5%
same,"viability, T/C",[10],38.2%
same,"viability, T/C",[11],11.7%
same,"viability, T/C",[12],0.1%
same,"viability, T/C",[13],38.1%
same,"viability, T/C",[14],29.4%
same,"viability, T/C",[15],35%
same,"viability, T/C",[16],29.3%
same,"viability, T/C",[17],13.1%
same,"viability, T/C",[18],0.44%
same,"viability, T/C",[19],37.9%
same,"viability, T/C",[20],32.2%
same,"viability, T/C",[21],32%
same,"viability, T/C",[22],19.4%
same,"viability, T/C",[23],9.16%
same,"viability, T/C",[24],0.2%
